Test results reported in patent publication US20190275087A1, “EXPANSION AND DIFFERENTIATION OF STEM CELLS” (Allergan Pharmaceuticals International Limited, priority 2018, published 2019).

Tests used:
integrins on MSCs = experiment: cell-based or functional assay
MSCs [1] = experiment: MSC attachment to substrate-bound tropoelastin (EDTA inhibition, cation add-back); format: cell-based, Human; conditions: 5 mM
Protocol: MSCs were seeded at a density of 1.5×10^5 cells/cm^2 on tropoelastin-coated wells in serum-free α-MEM containing 0-9 mM ethylenediaminetetraacetic acid (EDTA) (Sigma-Aldrich®). The cells were incubated for 1 hour at 37° C., then washed with PBS to remove unbound cells. Bound cells were fixed, stained and measured for absorbance at 570 nm as described for the proliferation assays. The percentage of cell attachment was determined relative to a set of standards with known cell numbers.
MSCs were washed with cation-free PBS, centrifuged at 270 g for 5 min, and resuspended in cation-free PBS. The cells were seeded at a density of 1.5×10^5 cells/cm^2 on tropoelastin-coated wells in the presence of 0-0.5 mM cation (Mg^2+, Ca^2+ or Mn^2+) and incubated for 45 min at 37° C. Bound cells were fixed and stained, and cell attachment was quantified as previously described.

MSCs [2] = experiment: Flow cytometry of MSC surface marker expression; format: cell-based, Human; conditions: bare TCP, media with only this growth factor, 7 days post-seeding
Protocol: MSCs cultured for 5 or 7 days in various media formulations and on bare or protein-coated tissue culture wells were trypsinised and pelleted. The cell pellets were washed with 0.22 μm filtered FACS buffer (5% v/v FBS in PBS) and re-centrifuged at 270 g for 5 min. The cells were resuspended in FACS buffer to a concentration of 100,000 cells in 100 μL total volume, and probed for MSC marker expression using the Human Mesenchymal Stem Cell Verification Flow Kit (R&D Systems®). Isotype and unstained control samples were prepared using MSCs cultured in standard growth media on tissue culture plastic. Cells were analyzed using a BD™ Biosciences LSR II Flow Cytometer System. Singlet cells were determined by their forward scatter-to-side scatter and scatter height-to-width ratios, while viable cells were identified by exclusion of 1:20 propidium iodide. Only singlet, viable cells were analyzed for marker expression.

MSCs [3] = experiment: MSC proliferation with integrin, FGFR, FAK and PKB/AKT inhibitors; format: cell-based, Human; conditions: for reduction of tropoelastin-mediated proliferation: downstream signaling inhibitor, 7 days
Protocol: (§1) Sub-confluent flasks of MSCs were treated with 0.05% (v/v) trypsin-EDTA (Sigma-Aldrich®) at 37° C. for 5 min to lift off adherent cells from the culture vessel. Trypsin was neutralized with two volumes of serum-containing growth media. Cells were centrifuged at 270 g for 5 min and resuspended in the required media. Cells were seeded at a density of 5000 cells/cm^2 on bare or protein-coated tissue culture plastic wells, in normal or supplemented media. Media was changed every 2 days. After specific time points, cells were fixed with 3% (v/v) formaldehyde at room temperature for 20 min, washed with PBS, then stained with 0.1% (w/v) crystal violet in 0.2 M MES buffer for 1 hour. Excess stain was washed off four times with reverse osmosis water. The retained stain was solubilized with 10% (v/v) acetic acid and sample absorbance values indicative of cell abundance were read at 570 nm. Sample absorbance values were subtracted by baseline values (corresponding to cell numbers in serum-free media, or cell numbers on day 1 post-seeding) and expressed as a fraction of the highest absorbance among all samples on day 7 post-seeding.
To block specific integrin activity, up to 20 μg/mL of anti-αv or anti-αvβ3 integrin antibodies (Abcam®), or up to 1:250 dilution of anti-αvβ5 integrin antibody (Abcam®) was added to the media during MSC spreading or proliferation assays. […] An anti-β8 integrin (5 μg/mL) (Abcam®) or a non-specific mouse IgG (5 μg/mL) (Sigma-Aldrich®) were also included as negative antibody controls. […] The integrin and FGFR inhibitors were replenished during every media change.

[4] = test system: Human bone marrow-derived MSCs; experiment: MSC proliferation (crystal violet cell abundance); format: cell-based
Protocol: Human bone marrow-derived MSCs obtained from American Type Culture Collection (ATCC) were cultured in normal media, which consists of Alpha-Minimum Essential Medium (α-MEM) (Lonza) with 10% (v/v) FBS (Life Technologies) and 2.4 mM L-glutamine (Lonza), at 37° C. in a humidified normoxic incubator up to a maximum of 10 population doublings. Where indicated, the normal media was supplemented with 15 ng/mL IGF-1 (Life Technologies) and/or […] bFGF (Life Technologies), equivalent to the growth factor concentrations in the ATCC-recommended media. Cells were passaged once they reach 70-80% confluence.
Where indicated, tissue culture plastic wells were coated with 20 μg/mL recombinant human tropoelastin (Elastagen) or 2 μg/mL fibronectin (Sigma-Aldrich®) in PBS (10 mM phosphate, 150 mM NaCl, pH 7.4) at 4° C. overnight. The protein solution was removed, and wells were washed three times with PBS to remove unbound protein prior to cell seeding.
[…] To prevent protein adhesion on the tissue culture substrate, wells were pre-incubated with normal media for 5 hours to enable surface blocking by serum proteins prior to cell seeding in supplemented media.
as §1

MSCs [5] = experiment: MSC spreading with integrin-blocking antibodies; format: cell-based, Human; conditions: no antibody
Protocol: Cells were fixed and visualized by phase contrast microscopy with a Zeiss Axio Vert.A1 microscope. Images were taken on an AxioCam ICml monochrome camera. […] Cell spreading was quantified by counting the percentage of spread cells in each field of view. Three fields of view were obtained for each sample replicate.
To block specific integrin activity, up to 20 μg/mL of anti-αv or anti-αvβ3 integrin antibodies (Abcam®), or up to 1:250 dilution of anti-αvβ5 integrin antibody (Abcam®) was added to the media during MSC spreading or proliferation assays. Optimal inhibitory concentrations were selected for the anti-αv (5 μg/mL), anti-αvβ3 (5 μg/mL), and anti-αvβ5 (1:500 dilution) integrin antibodies. An anti-β8 integrin (5 μg/mL) (Abcam®) or a non-specific mouse IgG (5 μg/mL) (Sigma-Aldrich®) were also included as negative antibody controls. To block FGFR activity, up to 20 μM of the SU-5402 FGFR inhibitor (Sigma-Aldrich®) was added to the media during MSC proliferation. The integrin and FGFR inhibitors were replenished during every media change.

Chain of recombinant human tropoelastin (Elastagen) (P15502 other isoform, or with tags, fused parts or gaps limits assumed): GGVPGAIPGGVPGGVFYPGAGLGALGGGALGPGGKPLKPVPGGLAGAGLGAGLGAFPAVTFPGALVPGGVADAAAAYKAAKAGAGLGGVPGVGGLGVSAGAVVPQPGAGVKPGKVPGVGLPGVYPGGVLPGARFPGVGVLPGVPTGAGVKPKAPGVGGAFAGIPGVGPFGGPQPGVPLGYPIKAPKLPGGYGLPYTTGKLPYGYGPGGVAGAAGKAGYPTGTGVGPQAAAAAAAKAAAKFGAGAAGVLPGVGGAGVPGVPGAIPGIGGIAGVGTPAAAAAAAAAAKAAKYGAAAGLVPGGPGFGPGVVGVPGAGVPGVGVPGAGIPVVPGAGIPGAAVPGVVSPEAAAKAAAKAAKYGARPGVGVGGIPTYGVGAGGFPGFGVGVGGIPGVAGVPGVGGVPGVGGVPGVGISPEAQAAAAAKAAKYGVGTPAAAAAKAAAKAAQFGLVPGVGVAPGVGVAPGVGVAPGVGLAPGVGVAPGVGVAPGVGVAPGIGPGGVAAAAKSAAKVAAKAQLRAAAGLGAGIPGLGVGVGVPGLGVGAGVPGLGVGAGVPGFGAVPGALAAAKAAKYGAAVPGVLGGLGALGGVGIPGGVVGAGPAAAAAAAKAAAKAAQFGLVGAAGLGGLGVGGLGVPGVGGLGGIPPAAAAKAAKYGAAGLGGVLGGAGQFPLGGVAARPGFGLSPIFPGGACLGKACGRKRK

recombinant human tropoelastin (Elastagen) (from UniProt P15502 27-724) (ligand)
MSC adhesion to tropoelastin after addition of up to 0.5 mM Ca2+ (integrins on MSCs): 13.7%
MSC adhesion to tropoelastin after addition of up to 0.5 mM Mg2+ (integrins on MSCs): 51.8%
MSC adhesion to tropoelastin after addition of up to 0.5 mM Mn2+ (integrins on MSCs): 76.1%
MSC adhesion to tropoelastin in a cation-free environment (integrins on MSCs): 20%
reduction of MSC attachment to substrate-bound tropoelastin in the presence of 5 mM EDTA (integrins on MSCs): 48.9%

O=C(O)CN(CCN(CC(=O)O)CC(=O)O)CC(=O)O [EDTA, ethylenediaminetetraacetic acid, reference compound]
reduction of MSC binding to tropoelastin (MSCs [1]): 48.9±0.5%

bFGF: basic fibroblast growth factor (Life Technologies), media supplement [reference compound]
cells positive for CD105 (MSCs [2]): 92.9±5.9%

Cc1c[nH]c(/C=C2\C(=O)Nc3ccccc32)c1CCC(=O)O [SU-5402]
reduction in overall cell numbers compared to no inhibitor control (MSCs [3]; bFGF-supplemented media, over 7 days): ≤ 78.9±0.7%

Nc1cc(N)c(N)cc1N [FAK inhibitor 14]
reduction of tropoelastin-mediated proliferation (MSCs [3]): 50.7±2.0%

fibronectin [reference compound]
decrease in MSC proliferation on coated surface following serum reduction ([4]; 20% reduction in serum, after 7 days): 15±0.1%
inhibition of MSC proliferation on coated TCP compared to normal media ([4]; 40% decrease in serum, after 7 days): 25±1%
coating concentration that promoted MSC expansion ([4]; coated on the substratum): ≥ 2 µg/mL
serum reduction at which MSC numbers significantly decreased ([4]; coated surface, until 3 days post-seeding): completely absent
MSC propagation of fibronectin coating relative to tropoelastin coating ([4]; full serum media): equally promoted
stimulation of MSC proliferation above normal media ([4]; in solution in media, up to 7 days): did not trigger any proliferative response
cell spreading on fibronectin (MSCs [5]): 92.5±2.6%

CCCCCCCCCCCCCCCCCCOP(=O)([O-])OC1CC[N+](C)(C)CC1 [perifosine]
reduction of tropoelastin-mediated proliferation (MSCs [3]): 21.3±0.5%

IGF-1: insulin-like growth factor-1 (Life Technologies), media supplement [reference compound]
MSC numbers compared to normal media ([4]; media supplementation with IGF-1 alone): did not increase MSC numbers
cells expressing CD73 (MSCs [2]): 89.1±0.1%
cells positive for CD105 (MSCs [2]): 83.9±0.7%
